Measurements reported in patent publication US7972785B2, “Biomarkers for liver fibrotic injury” (Industrial Technology Research Institute (ITRI), priority 2006, dated 2011).

System: Tgfβ1, Timp1, Timp2, Mmp3, Ggtp mRNA in rat liver
Test: Q-RT-PCR of liver mRNA in DMN-treated rats
Type: in vivo
Protocol: To gain additional information about the established animal model, Q-RT-PCR was used to evaluate the gene expression profile of transforming growth factor-1 (Tgfβ1), which is the strongest known inducer of fibrogenesis in the effector cells of hepatic fibrosis that can stimulate the adipocyte transformation (24-27). The same total RNA samples were used for both microarray and Q-RT-PCR analyses. RNA preparation and analysis were performed according to Affymetrix's (Santa Clara, Calif., U.S.A.) instructions. The TAQMAN® assays were conducted in triplicate for each sample, and a mean value was used for calculation of expression levels. To standardize the quantification of the target genes, 18S ribosomal RNA (18S rRNA) from each sample was quantified on the same plate with the target genes. […] The changes were in agreement with observations described in Jezequel A. M. et al. (14). In sum, these examinations support the DMN-induced rat hepatic fibrosis model.
To validate the microarray data, Q-RT-PCR analysis was performed for tissue inhibitor of metalloproteinase 1 (Timp1), tissue inhibitor of metalloproteinase 2 (Timp2), matrix metalloproteinase 3 (Mmp3) and gamma-glutamyl transpeptidase (Ggtp). These genes were chosen for validation because these genes occurred both in this GeneChip study and in previous studies.
Moreover, a good concordance based on the fold changes between microarray data and Q-RT-PCR results was observed. […] TAQMAN® assays were conducted in triplicate for each sample, and a mean value was used for calculation of expression levels (marked by the square). To standardize the quantification of the Timp1 transcript, 18S rRNA from each sample was quantified on the same plate as the target gene, as indicated by the log scale on the right side of plot. The expression levels of the two Timp1 transcripts, rc_AI169327_at and rc_AI169327_g_at (marked by a circle and a triangle, respectively), were set forth relative to the mean of all gene expression levels as indicated by the scale on the left side of plot.

[1] = Q-RT-PCR, DMN-treated samples, data not shown

With `CN(C)N=O` [DMN, Dimethylnitrosamine] the “Tgfβ1 mRNA expression in liver vs controls” value (Q-RT-PCR, DMN-treated rat livers) was “higher level of mRNA expression”, the Ggtp expression [1] was “elevated” and the Mmp3 expression [1] was “elevated”. The Timp2 expression [1] was “elevated” and the “Timp1 expression elevation in DMN-treated rats” value (both microarray and Q-RT-PCR experiments) was “over 20 fold”.
